Measured values taken from PubChem BioAssay (NCI).
Values joined by “and” are separate entries in the source; they are usually repeats but may differ in a detail not shown here. Equal values may be shown once.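 GI50 = concentration required for 50% inhibition of growth. TGI is the concentration that stops growth completely.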

Tests used:
Test in all cases: DTP human tumour cell line panel, 384-well format
NCI-H522 lung = system: NCI-H522 lung
PC-3 prostate = system: PC-3 prostate
COLO 205 colon = system: COLO 205 colon
NCI-H23 lung = system: NCI-H23 lung
IGROV1 ovarian = system: IGROV1 ovarian
MOLT-4 leukemia = system: MOLT-4 leukemia
HCT-116 colon = system: HCT-116 colon
UO-31 renal = system: UO-31 renal
SNB-75 CNS = system: SNB-75 CNS
ACHN renal = system: ACHN renal
LOX IMVI melanoma = system: LOX IMVI melanoma
CAKI-1 renal = system: CAKI-1 renal
OVCAR-3 ovarian = system: OVCAR-3 ovarian
SK-MEL-5 melanoma = system: SK-MEL-5 melanoma
SK-MEL-2 melanoma = system: SK-MEL-2 melanoma
NCI-H322M lung = system: NCI-H322M lung
KM12 colon = system: KM12 colon
MDA-MB-468 breast = system: MDA-MB-468 breast
HOP-92 NSCLC = system: HOP-92 NSCLC
SNB-19 CNS = system: SNB-19 CNS
T-47D breast = system: T-47D breast
SF-539 CNS = system: SF-539 CNS
NCI-H226 lung = system: NCI-H226 lung
U251 glioblastoma = system: U251 glioblastoma
DU-145 prostate = system: DU-145 prostate
MALME-3M melanoma = system: MALME-3M melanoma
OVCAR-8 ovarian = system: OVCAR-8 ovarian
SK-MEL-28 melanoma = system: SK-MEL-28 melanoma
K-562 leukemia = system: K-562 leukemia
RPMI-8226 leukemia = system: RPMI-8226 leukemia
M14 melanoma = system: M14 melanoma
SW-620 colon = system: SW-620 colon
SN12C renal = system: SN12C renal
SK-OV-3 ovarian = system: SK-OV-3 ovarian
SR leukemia = system: SR leukemia
UACC-62 melanoma = system: UACC-62 melanoma
786-0 renal = system: 786-0 renal
HT29 colon = system: HT29 colon
HCT-15 colon = system: HCT-15 colon
HL-60(TB) leukemia = system: HL-60(TB) leukemia
OVCAR-5 ovarian = system: OVCAR-5 ovarian
SF-295 CNS = system: SF-295 CNS
TK-10 renal = system: TK-10 renal
OVCAR-4 ovarian = system: OVCAR-4 ovarian
MDA-MB-231 breast = system: MDA-MB-231 breast
SF-268 CNS = system: SF-268 CNS
NCI-H460 NSCLC = system: NCI-H460 NSCLC
HCC-2998 colon = system: HCC-2998 colon
MDA-MB-435 melanoma = system: MDA-MB-435 melanoma
CCRF-CEM leukemia = system: CCRF-CEM leukemia
HOP-62 NSCLC = system: HOP-62 NSCLC
MCF7 breast = system: MCF7 breast
HS 578T breast = system: HS 578T breast
RXF 393 renal = system: RXF 393 renal
A549 NSCLC = system: A549 NSCLC
BT-549 breast = system: BT-549 breast
NCI/ADR-RES ovarian = system: NCI/ADR-RES ovarian
EKVX NSCLC = system: EKVX NSCLC
A498 renal = system: A498 renal
UACC-257 melanoma = system: UACC-257 melanoma

COc1cccc2c1C(=O)c1c(O)c3c(c(O)c1C2=O)C[C@@](O)(C(=O)CO)C[C@@H]3OC1CC(N)C(O)C(C)O1 (stereo partly specified)
GI50 (NCI-H522 lung): 25.3 nM and 18 nM and 11.1 nM | TGI (NCI-H522 lung): 75.6 nM and 69.7 nM and 117 nM | GI50 (PC-3 prostate): 189 nM and 154 nM and 139 nM | TGI (PC-3 prostate): 765 nM and 626 nM and 467 nM | GI50 (COLO 205 colon): 17.8 nM | TGI (COLO 205 colon): 328 nM and 179 nM | GI50 (NCI-H23 lung): 43 nM and 27.4 nM and 28.5 nM | TGI (NCI-H23 lung): 126 nM and 89 nM and 133 nM | GI50 (IGROV1 ovarian): 72.5 nM and 46.7 nM | TGI (IGROV1 ovarian): 1220 nM and 231 nM | GI50 (MOLT-4 leukemia): 4.08 nM and < 10 nM | TGI (MOLT-4 leukemia): 7.81 nM | GI50 (HCT-116 colon): 29.4 nM and 16.5 nM | TGI (HCT-116 colon): 972 nM and 151 nM | GI50 (UO-31 renal): 360 nM and 508 nM and 907 nM | TGI (UO-31 renal): 1630 nM and 1530 nM and 2280 nM | GI50 (SNB-75 CNS): 40.3 nM and 31.7 nM and 43.3 nM | TGI (SNB-75 CNS): 126 nM and 100 nM and 174 nM | GI50 (ACHN renal): 69.2 nM and 64 nM and 171 nM | TGI (ACHN renal): 407 nM and 287 nM and 591 nM | GI50 (LOX IMVI melanoma): 32 nM and 23.9 nM and 21.9 nM | TGI (LOX IMVI melanoma): 235 nM and 157 nM and 163 nM | GI50 (CAKI-1 renal): 41.9 nM and 25 nM | TGI (CAKI-1 renal): 504 nM and 160 nM | GI50 (OVCAR-3 ovarian): 73.4 nM and 116 nM | TGI (OVCAR-3 ovarian): 539 nM and 821 nM | GI50 (SK-MEL-5 melanoma): 41.1 nM and 13.1 nM | TGI (SK-MEL-5 melanoma): 166 nM and 58.6 nM | GI50 (SK-MEL-2 melanoma): 56.5 nM and 86 nM and 68.1 nM | TGI (SK-MEL-2 melanoma): 128 nM and 179 nM and 130 nM | GI50 (NCI-H322M lung): 365 nM and 270 nM and 326 nM | TGI (NCI-H322M lung): 985 nM and 914 nM and 1830 nM | GI50 (KM12 colon): 39.6 nM and 41 nM | TGI (KM12 colon): 423 nM and 212 nM | GI50 (MDA-MB-468 breast): 26.2 nM and 14.8 nM and 12.7 nM | TGI (MDA-MB-468 breast): 70 nM and 36.6 nM and 28.3 nM | GI50 (HOP-92 NSCLC): 24.6 nM and 35.9 nM and 66.9 nM | GI50 (SNB-19 CNS): 36.2 nM and 32.2 nM and 34.3 nM | GI50 (T-47D breast): 32.9 nM and 32 nM and 40.8 nM | GI50 (SF-539 CNS): 39.9 nM and 34.8 nM and 35.8 nM | TGI (SF-539 CNS): 264 nM and 168 nM and 173 nM | GI50 (NCI-H226 lung): 34.4 nM and 36.8 nM and 75.2 nM | TGI (NCI-H226 lung): 131 nM and 156 nM and 299 nM | GI50 (U251 glioblastoma): 20 nM and 18.4 nM and 14.3 nM | GI50 (DU-145 prostate): 33.7 nM and 18.5 nM | TGI (DU-145 prostate): 148 nM and 214 nM | GI50 (MALME-3M melanoma): 38.1 nM and 45.6 nM and 54.7 nM | TGI (MALME-3M melanoma): 153 nM and 166 nM and 191 nM | GI50 (OVCAR-8 ovarian): 76.4 nM and 55.9 nM and 58 nM | TGI (OVCAR-8 ovarian): 466 nM and 236 nM and 223 nM | GI50 (SK-MEL-28 melanoma): 84.4 nM and 72.7 nM and 101 nM | TGI (SK-MEL-28 melanoma): 336 nM and 208 nM and 237 nM | GI50 (K-562 leukemia): 39.7 nM and 43.9 nM and 45.6 nM | TGI (K-562 leukemia): 340 nM and 245 nM and 229 nM | GI50 (RPMI-8226 leukemia): 7.64 nM and 11.2 nM and < 10 nM | TGI (RPMI-8226 leukemia): 40.3 nM and 24.6 nM and 21.9 nM | GI50 (M14 melanoma): 51.6 nM and 44.6 nM and 37.1 nM | TGI (M14 melanoma): 200 nM and 182 nM and 190 nM | GI50 (SW-620 colon): 23.3 nM and 44.8 nM and 19.6 nM | TGI (SW-620 colon): 463 nM and 741 nM and 501 nM | GI50 (SN12C renal): 35.8 nM and 31.4 nM and 33.5 nM | TGI (SN12C renal): 162 nM and 166 nM and 181 nM | GI50 (SK-OV-3 ovarian): 68.1 nM and 75.6 nM and 80.2 nM | TGI (SK-OV-3 ovarian): 334 nM and 377 nM and 409 nM | GI50 (SR leukemia): 4 nM | TGI (SR leukemia): 7.78 nM | GI50 (UACC-62 melanoma): 25.3 nM and 28.6 nM and 14.8 nM | TGI (UACC-62 melanoma): 133 nM and 155 nM and 142 nM | GI50 ([…]-0 renal): 42.9 nM and 25.3 nM and 46.5 nM | TGI (786-0 renal): 227 nM and 226 nM and 1070 nM | GI50 (HT29 colon): 114 nM and 119 nM and 106 nM | TGI (HT29 colon): 490 nM and 303 nM and 263 nM | GI50 (HCT-15 colon): 202 nM and 111 nM and 89 nM | TGI (HCT-15 colon): 2130 nM and 1360 nM and 1490 nM | GI50 (HL-60(TB) leukemia): 5.95 nM and < 10 nM | TGI (HL-60(TB) leukemia): 14.5 nM and 11.8 nM | GI50 (OVCAR-5 ovarian): 194 nM and 260 nM and 159 nM | TGI (OVCAR-5 ovarian): 1040 nM and 2130 nM and 720 nM | GI50 (SF-295 CNS): 49.2 nM and 32.3 nM and 52.2 nM | TGI (SF-295 CNS): 169 nM and 135 nM and 447 nM | GI50 (TK-10 renal): 78 nM and 88.7 nM | TGI (TK-10 renal): 461 nM and 328 nM | GI50 (OVCAR-4 ovarian): 310 nM and 246 nM and 263 nM | TGI (OVCAR-4 ovarian): 983 nM and 954 nM and 1910 nM | GI50 (MDA-MB-231 breast): 81.5 nM and 43.4 nM and 36.9 nM | TGI (MDA-MB-231 breast): 523 nM and 275 nM and 318 nM | GI50 (SF-268 CNS): 35.2 nM and 32.6 nM and 36.3 nM | TGI (SF-268 CNS): 207 nM and 138 nM and 213 nM | GI50 (NCI-H460 NSCLC): 9.14 nM | TGI (NCI-H460 NSCLC): 86.1 nM and 98.9 nM | GI50 (HCC-2998 colon): 35.6 nM and 17.6 nM | TGI (HCC-2998 colon): 176 nM and 92.6 nM | GI50 (MDA-MB-435 melanoma): 219 nM and 232 nM and 150 nM | TGI (MDA-MB-435 melanoma): 632 nM and 669 nM and 599 nM | GI50 (CCRF-CEM leukemia): 8.6 nM and < 11.2 nM and < 10 nM | TGI (CCRF-CEM leukemia): 27.4 nM and 19.4 nM and 17.7 nM | GI50 (HOP-62 NSCLC): 40.6 nM and 23.8 nM and 34.4 nM | TGI (HOP-62 NSCLC): 145 nM and 91.6 nM and 125 nM | GI50 (MCF7 breast): 34 nM and 22.8 nM and 19.1 nM | TGI (MCF7 breast): 3210 nM and 1370 nM and 12200 nM | GI50 (HS 578T breast): 16.7 nM and 26.9 nM and 109 nM | TGI (HS 578T breast): 133 nM and 141 nM and 322 nM | GI50 (RXF 393 renal): 37.2 nM and 41 nM and 117 nM | TGI (RXF 393 renal): 211 nM and 114 nM and 274 nM | GI50 (A549 NSCLC): 58.7 nM and 26.3 nM and 41.3 nM | TGI (A549 NSCLC): 473 nM and 188 nM and 222 nM | GI50 (BT-549 breast): 23.3 nM and 18.2 nM and 13.6 nM | TGI (BT-549 breast): 128 nM and 70.2 nM and 130 nM | GI50 (NCI/ADR-RES ovarian): 5900 nM and 7690 nM and 22600 nM | TGI (NCI/ADR-RES ovarian): 24300 nM and 34300 nM and > 100000 nM | GI50 (EKVX NSCLC): 165 nM and 248 nM and 419 nM | TGI (EKVX NSCLC): 704 nM and 1280 nM and 4790 nM | GI50 (A498 renal): 38.2 nM and 30.6 nM and 50.9 nM | TGI (A498 renal): 472 nM and 184 nM and 244 nM | GI50 (UACC-257 melanoma): 109 nM and 118 nM and 125 nM | TGI (UACC-257 melanoma): 389 nM and 255 nM and 261 nM
